Laboratory results reported in US11407825B2, “NaPi2b-targeted polymer antibody-drug conjugates and methods of use thereof” (Mersana Therapeutics, Inc., priority 2018, dated 2022).
Square brackets hold non-standard residues; d marks the D form. Peptide text beside a SMILES is read from it. * marks the point of attachment. Dolaproine = CO[C@@H]([C@@H]1CCCN1)[C@@H](C)C(=O)O; Dil = CC[C@H](C)[C@H](NC)[C@@H](CC(=O)O)OC; NMe2Val = CC(C)[C@@H](C(=O)*)N(C)C; NH(3-hydroxypropyl) = OCCCN*

Assay: Plasma PK profile in patients dosed with XMT-1536
Type: in vivo, human
Conditions: after XMT-1536
Experimental: The PK profile of the active ingredient of XMT-1536, its release product and selected metabolites are determined for each patient by non-compartmental analysis using standard PK software (e.g., Phoenix WinNonlin). PK parameters per patient include time of maximum observed concentration (tmax), maximum concentration (Cmax), and area under the concentration curve for the last measurable concentration (AUC0-last). When the terminal elimination phase is identified, additional parameters such as elimination half-life, clearance, and volume of distribution are determined.
The plasma PK profile for the analytes (total antibody; conjugated drug (AF-HPA); free drug (AF-HPA) and the drug metabolite auristatin F (AF)) was determined in blood samples from 30 patients (3 mg/m^2, n=1; 6 mg/m^2, n=1; 12 mg/m^2, n=7; 20 mg/m^2, n=15; 30 mg/m^2, n=5; 40 mg/m^2, n=1). […] The PK characteristics is consistent with that reported for other approved antibody-drug conjugates or those currently in clinical development.

Row | SMILES | accumulation after administration of multiple doses | systemic exposure compared to that of the conjugated drug
1 | CC[C@H](C)[C@@H]([C@@H](CC(=O)N1CCC[C@H]1[C@H](OC)[C@@H](C)C(=O)N[C@@H](Cc1ccccc1)C(=O)NCCCO)OC)N(C)C(=O)[C@@H](NC(=O)[C@H](C(C)C)N(C)C)C(C)C [AF-HPA, Auristatin F-hydroxypropyl amide] (NMe2Val-V[Dil][Dolaproine]F-{NH(3-hydroxypropyl)}) | no accumulation | low systemic expose
2 | CC[C@H](C)[C@@H]([C@@H](CC(=O)N1CCC[C@H]1[C@H](OC)[C@@H](C)C(=O)N[C@@H](Cc1ccccc1)C(=O)O)OC)N(C)C(=O)[C@@H](NC(=O)[C@H](C(C)C)N(C)C)C(C)C [AF, auristatin F] (NMe2Val-V[Dil][Dolaproine]F-OH) | no accumulation | low systemic expose
